# Experimental data: patent US6440900B1, “Method for extending the life of cut flowers” (Engelhard Corporation, priority 2001, dated 2002)
# How the values were obtained:
# fresh red roses = assay: Cut flower life test: 5 fresh red roses per beaker of treated tap water, monitored daily for bloom death; format: in vivo, rose; settings: for Average Flower Life: 5 per beaker
# Procedure: In the following examples, test were conducted with fresh red roses obtained from a single source. The stems were cut (under water) and, for each experimental test, 5 roses were placed in a beaker. The same person monitored the flowers every day (the criterion for bloom death was that the monitor would have discarded the roses if the roses were in the monitor's home). Thereafter, the average flower life in days was calculated for each experimental condition.
# Five beakers of 800 ml tap water containing 0, 2, 5, 10 and 15 ppm chlorine dioxide were used for these tests.
# Example 1 was repeated using tap water alone, tap water containing 5 ppm chlorine dioxide, tap water containing “Aquaplus®” and tap water containing 5 ppm chlorine dioxide and “Aquaplus®”. “Aquaplus®” is described as a fresh flower nutrient and water clarifier and was obtained from Syndicate Sales, Kokomo, Ind.
# [1] = Spectroscopic evaluation of the flower water for chlorine dioxide; format: physicochemical; settings: third day of the tests; uncovered beakers, tap water
# Excerpt: As may be seen from the results set forth in Table 1, the roses in the beaker containing no chlorine dioxide had the shortest lifetime. […] Roses with less or more chlorine dioxide had intermediate lifetimes. […] This was not surprising since the beakers were uncovered and chlorine dioxide could readily escape or decompose.
structure (smiles),measurement,setting,value
"[O][Cl+][O-] [Chlorine Dioxide, chlorine dioxide]",Average Flower Life,fresh red roses; 2 ppm chlorine dioxide in 800 ml tap water,5.6 days
same,Change of lifetime of the roses compared to no chlorine dioxide / plain water control,fresh red roses; 5 ppm chlorine dioxide,approximately doubled
same,Average Flower Life,fresh red roses; 5 ppm chlorine dioxide in 800 ml tap water,7.8 days
same,Average Flower Life,fresh red roses; 10 ppm chlorine dioxide in 800 ml tap water,5.8 days
same,Average Flower Life,fresh red roses; 15 ppm chlorine dioxide in 800 ml tap water,5.8 days
same,Flower Lifetime,"fresh red roses; Example 2, tap water containing 5 ppm ClO2",7.8 days
same,Chlorine dioxide present in the flower water,[1],no chlorine dioxide was present
